In experiment [1] the test system is HCT116 p53+/+ cells. Description: Antiproliferative activity, sulforhodamine B (SRB) assay. It is filed as cell-based, human. The note with it: for S.I. (selectivity index): HCT116 p53−/− versus HCT116 p53+/+; for increase in the antiproliferative activity on bromine insertion at the C-2 indole: versus non-brominated parent isoindolinone. As to the method:
(§1) Tumor cells were cultured in RPMI-1640 with UltraGlutamine (Lonza, VWR), supplemented with 10% fetal bovine serum (FBS; Gibco, Alfagene) and maintained in a humidified incubator at 37 °C with 5% CO2. Cell lines were seeded in 96-well plates at the cells/well density of 5.0 × 10^3.

Experiment [2] relates to HCT116 p53−/− cells. The experiment is described as above. It is filed as cell-based, human. On the procedure:
as §1

The target of experiment [3] is T1, wt p53 core domain (DNA Binding Domain; p53DBD; residues 94–312) (Homo sapiens, UniProt P04637).
T1 construct: residues 94–312; host or cells: E. coli BL21 (DE3)-[pLys-S]
T1 sequence (P04637 94-312): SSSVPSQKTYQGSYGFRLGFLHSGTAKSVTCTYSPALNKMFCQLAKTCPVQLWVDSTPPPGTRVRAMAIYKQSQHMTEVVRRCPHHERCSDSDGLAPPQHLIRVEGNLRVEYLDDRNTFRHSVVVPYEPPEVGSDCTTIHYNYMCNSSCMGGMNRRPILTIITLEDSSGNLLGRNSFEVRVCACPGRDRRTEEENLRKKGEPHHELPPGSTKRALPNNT
Description: Differential scanning fluorimetry (DSF) thermostability. The note with it: 13d 2.5 mM, MQ 2 mM; for Tm of the wt p53DBD: 5% DMSO, mean ± SD, three assays. As to the method: Expression of wt p53 core domain. The wt p53DBD was expressed in E. coli BL21 (DE3)-[pLys-S] in fusion with an N-terminal 21-residue tag containing the hexa-histidyl peptide (His6) and the thrombin recognition sequence, using the pET15b-based expression construct.
For protein expression 10 mL of an overnight (ON) culture was used to inoculate 1 L of LB medium supplemented with 1 mL of ampicillin 100 mg/mL and 1mL of zinc sulphate 100 mM. Culture medium was incubated at 37 °C, 140 rpm till an OD600nm of ~0.5. Protein expression was then induced by adding 0.5 mL of isopropyl β-D-1-thiogalactopyranoside (IPTG) 1M (Cfinal = 0.5 mM) and bacterial growth at 27 °C, 120 rpm ON. E. coli cells were pelleted by centrifugation for 10 min, 4000 rpm, at 4 °C. The cellular pellet was resuspended in 10 mL of Lysis buffer (Sodium phosphate 50 mM; NaCl 300 mM; glycerol 10%, pH 7.4) supplemented with 1mg/mL Lysozyme (Biochemica Applichem Panreac), 1 mM of phenylmethanesulfonyl fluoride (PMSF) (Merck), 5 µg of DNAse I (Panreac applichem) and 0.8% of Triton X-100 (Merck). After a first step of chemical lysis (30 min incubation, at 4 °C), cells were further disrupted by four cycles of sonication, at 4 °C, during 60 s at 50% duty free cycle on a Vibra Cell (Media Cibernetics). The lysate was subsequently cleared by centrifugation at 10,000 rpm, 40 min, at 4 °C and the supernatant containing the soluble proteins were collected.
Purification of human wt p53DBD and His6-tag removal. Immobilized Metal Affinity Chromatography (IMAC) was performed to purify the wt p53DBD using a nickel-nitrilotriacetic acid (Ni-NTA) agarose resin (QIAGEN). Briefly, 1 mL of Ni^2+ resin was pre-equilibrated using MilliQ water (3 × 1 mL) and Lysis buffer containing 10 mM imidazole (3 × 1 mL). The soluble fraction of cellular lysate was supplemented with 6.8 µL of β-mercaptoethanol and 33.2 µL of imidazole 3 M to obtain the final concentrations of […] and 10 mM, respectively. The lysate was added to the pre-equilibrated resin and protein binding was performed by incubation on an orbital shaker for one hour at 4 °C. The suspension was added to a 9 cm polypropylene conical column (Poly-Prep columns; BioRad) and protein purification was performed by gravity flow with an imidazole gradient consisting of three washing steps (2 × 5 mL of Lysis buffer, 20 mM imidazole; 2 × 5 mL of Lysis buffer, 50 mM imidazole; and 1 × 2.5 mL Lysis buffer, 75 mM imidazole) and an elution step with 5 × 500 µL of Lysis buffer, 250 mM imidazole. Protein eluted fractions were assessed by SDS-PAGE and Coomassie staining. Size exclusion chromatography was performed on the pooled protein eluted fractions, using an AKTA prime plus system (GE Healthcare) equipped with a UV detector (280 nm), a HiLoad 16/60, Superdex 200 prep grade column (GE Healthcare) and SEC buffer (25 mM potassium phosphate buffer, 150 mM NaCl, pH 7.5). The fractions corresponding to the wt p53DBD monomers were collected and treated with thrombin (8 units of thrombin/mg wt p53DBD). The thrombin cleavage was conducted for 18 h at rt at pH 7.4 in the assay buffer recommended by the supplier. Before and after digestion protein concentration was determined through Bradford method.
Thermostability of wt p53DBD core domain assessed by differential scanning fluorimetry (DSF). An amount of 5 μg of thrombin-cleaved wt p53DBD was incubated with testing compounds (2.5 mM) in 25 mM potassium phosphate buffer and 150 mM NaCl, pH 7.5 in a final volume of 50 µL containing 2 µL of 1 mM DTT or 1 mM TCEP to promote p53 core domain redox control, and Sypro Orange at 2.5x final concentration. The fluorescence was assessed on a C1000 Touch thermal cycler equipped with a CFX96 optical reaction module (BioRad) and the FRET channel (λexc 450–490 nm and λem 560–580 nm). Temperature was ramped from 20 to 90 °C with a rate of 0.2 °C/12 sec. The Tm values were calculated using Origin 8 Software. […]
On the technique in general: In DSF a fluorescence change marks the thermal transition of the protein.

Where [4] appears, read: Homo sapiens, HCT-116, 48 h treatment, mean ± SEM of 3–5 independent experiments, read-out: HCT116 p53+/+ GI50.
Where [5] appears, read: Homo sapiens, HCT-116, 48 h, 48 h treatment, mean ± SEM of 3–5 independent experiments, read-out: HCT116 p53−/− GI50.
[6] abbreviates: Homo sapiens, HCT-116, 48 h treatment, mean ± SEM of 5 independent experiments, read-out: HCT116 p53+/+ GI50.
[7] abbreviates: Homo sapiens, HCT-116, 48 h, 48 h treatment, mean ± SEM of 5 independent experiments, read-out: HCT116 p53−/− GI50.

Like-named read-outs stand apart in the source and are kept apart here. Bounds are passed on as bounds.

For the compound `Cc1ccc(S(=O)(=O)n2c(Br)c(C[C@H]3CO[C@]4(c5ccccc5)c5ccccc5C(=O)N34)c3ccccc32)cc1` [Compound 13o, (3S, 9bR)-3-((2-bromo-1-tosyl-1H-indol-3-yl)methyl)-9b-phenyl-2,3-dihydrooxazolo[2,3-a]isoindol-5(9bH)-one], the “less active derivative compared with SLMP53-2 (7)” value in experiment [1] (HCT116 p53+/+) stood at 4.0 fold. The “S.I. (selectivity index)” value in experiment [1] worked out at 0.6. Besides, the GI50 in experiment [1] (setting [4]) worked out at 34 ± 4 µM; in experiment [2] (setting [5]), 20.4 ± 1.15 µM.
Take `O=C1c2ccccc2[C@@]2(c3ccccc3)OC[C@H](Cc3c(Br)[nH]c4ccccc34)N12` [Compound 13a, (3S, 9bR)-3-((2-bromo-1H-indol-3-yl)methyl)-9b-phenyl-2,3-dihydrooxazolo[2,3-a]isoindol-5(9bH)-one]: the “S.I. (selectivity index)” value in experiment [1] is 0.7. The figures for the GI50 in experiment [1] (setting [4]) and in experiment [2] (setting [5]) were 14.6 ± 0.4 µM and 10.5 ± 2.6 µM, respectively.
On to `CCCn1c(Br)c(C[C@@H]2CO[C@@]3(c4ccccc4)c4ccccc4C(=O)N23)c2ccccc21` [13d′, (3R, 9bS)-3-((2-bromo-1-propyl-1H-indol-3-yl)methyl)-9b-phenyl-2,3-dihydrooxazolo[2,3-a]isoindol-5(9bH)-one], for which the GI50 worked out at 31.1 ± 4 µM in experiment [1] (setting [4]) and 25.4 ± 1.2 µM in experiment [2] (setting [5]).
Take `CCn1c(Br)c(C[C@H]2CO[C@]3(c4ccccc4)c4ccccc4C(=O)N23)c2ccccc21` [Compound 13j, (3S, 9bR)-3-((2-bromo-1-ethyl-1H-indol-3-yl)methyl)-9b-phenyl-2,3-dihydrooxazolo[2,3-a]isoindol-5(9bH)-one]: the “S.I. (selectivity index)” value in experiment [1] is reported as 1.2. Moreover, the figures for the GI50 in experiment [1] (setting [4]) and in experiment [2] (setting [5]) were 13 ± 1.01 µM and 16 ± 2 µM, respectively.
As for `C[C@]12OC[C@H](C[C@H]3C(=O)Nc4ccccc43)N1C(=O)c1ccccc12` [SLMP53-1_M3b, (3S,9bR)-9b-methyl-3-(((R)-2-oxoindolin-3-yl)methyl)-2,3-dihydrooxazolo[2,3-a]isoindol-5(9bH)-one], the GI50 in experiment [1] (setting [6]) and in experiment [2] (setting [7]) was > 50 µM throughout.
With `O=C1c2ccccc2[C@@]2(c3ccc(Cl)cc3)OC[C@H](Cc3c(Br)[nH]c4ccccc34)N12` [Compound 13h, (3S, 9bR)-3-((2-bromo-1H-indol-3-yl)methyl)-9b-(4-chlorophenyl)-2,3-dihydrooxazolo[2,3-a]isoindol-5(9bH)-one], in experiment [1], the “S.I. (selectivity index)” value amounted to 1.0 and the “increase in the antiproliferative activity on bromine insertion at the C-2 indole” value was 1.5 fold. For the same compound, the GI50 in experiment [1] (setting [4]) came to 5.8 ± 0.3 µM. For the same compound, in experiment [2] (setting [5]), the GI50 is 5.8 ± 0.4 µM.
`COc1ccc(C2=N[C@@H](c3ccc(Cl)cc3)[C@@H](c3ccc(Cl)cc3)N2C(=O)N2CCNC(=O)C2)c(OC(C)C)c1` [nutlin-3a, reference compound]: the GI50 in experiment [1] (control of the SRB assay, 48 h, read-out: GI50 in HCT116 p53+/+) was found to be 3.2 ± 1 µM; in experiment [2] (control of the SRB assay, 48 h, read-out: GI50 in HCT116 p53−/−) it was 24 ± 0.7 µM.
Take `O=C1c2ccccc2[C@@]2(c3ccc(Cl)c([N+](=O)[O-])c3)OC[C@H](Cc3c(Br)[nH]c4ccccc34)N12` [Compound 13i, (3S, 9bR)-3-((2-bromo-1H-indol-3-yl)methyl)-9b-(4-chloro-3-nitrophenyl)-2,3-dihydrooxazolo[2,3-a]isoindol-5(9bH)-one]: the “S.I. (selectivity index)” value in experiment [1] turned out to be 1.0. Besides, the GI50 was 23.3 ± 0.9 µM in experiment [1] (setting [4]) and 22.2 ± 1.2 µM in experiment [2] (setting [5]).
`C=C1C(=O)C2CCN1CC2` [MQ, Methylene quinuclidinone, reference compound]: the “ΔTm of the wt p53DBD” value in experiment [3] (DTT 1 mM) was 2.28 °C; in experiment [3] (TCEP 1 mM), 2.11 °C. Also, the “Tm of the wt p53DBD” value in experiment [3] (DTT (1 mM)) was determined as 42.22 ± 0.30 °C; in experiment [3] (TCEP (1 mM)), 43.27 ± 1.15 °C.
For `CC(=O)n1c(Br)c(C[C@H]2CO[C@]3(c4ccccc4)c4ccccc4C(=O)N23)c2ccccc21` [Compound 13m, (3S, 9bR)-3-((1-acetyl-2-bromo-1H-indol-3-yl)methyl)-9b-phenyl-2,3-dihydrooxazolo[2,3-a]isoindol-5(9bH)-one], the “S.I. (selectivity index)” value in experiment [1] was found to be 1.7. Moreover, the figures for the GI50 in experiment [1] (setting [4]) and in experiment [2] (setting [5]) were 13.05 ± 0.05 µM and 22.5 ± 2.5 µM, respectively.
With `Cn1c(Br)c(C[C@H]2CO[C@]3(c4ccccc4)c4ccccc4C(=O)N23)c2ccccc21` [Compound 13c, (3S, 9bR)-3-((2-bromo-1-methyl-1H-indol-3-yl)methyl)-9b-phenyl-2,3-dihydrooxazolo[2,3-a]isoindol-5(9bH)-one], in experiment [1], the “S.I. (selectivity index)” value amounted to 0.4. Also, the GI50 in experiment [1] (setting [4]) was 25.6 ± 1.4 µM; in experiment [2] (setting [5]), 10.8 ± 2 µM.
Regarding `O=C1c2ccccc2[C@@]2(c3ccc(F)cc3)OC[C@H](Cc3c(Br)[nH]c4ccccc34)N12` [Compound 13g, (3S, 9bR)-3-((2-bromo-1H-indol-3-yl)methyl)-9b-(4-fluorophenyl)-2,3-dihydrooxazolo[2,3-a]isoindol-5(9bH)-one], in experiment [1], the “S.I. (selectivity index)” value came to 1.0 and the “increase in the antiproliferative activity on bromine insertion at the C-2 indole” value is 1.2 fold. Further, the GI50 in experiment [1] (setting [4]) is 6.95 ± 0.6 µM. Besides, the GI50 in experiment [2] (setting [5]) stood at 6.7 ± 1.6 µM.
Take `C[C@]12OC[C@H](C[C@@H]3C(=O)Nc4ccccc43)N1C(=O)c1ccccc12` [SLMP53-1_M3a, (3S,9bR)-9b-methyl-3-(((S)-2-oxoindolin-3-yl)methyl)-2,3-dihydrooxazolo[2,3-a]isoindol-5(9bH)-one]: the GI50 in experiment [1] (setting [6]) and in experiment [2] (setting [7]) was > 50 µM throughout.
For the compound `CS(=O)(=O)n1c(Br)c(C[C@H]2CO[C@]3(c4ccccc4)c4ccccc4C(=O)N23)c2ccccc21` [Compound 13n, (3S, 9bR)-3-((2-bromo-1-(methylsulfonyl)-1H-indol-3-yl)methyl)-9b-phenyl-2,3-dihydrooxazolo[2,3-a]isoindol-5(9bH)-one], the “S.I. (selectivity index)” value in experiment [1] came to 1.1. Also, the results for the GI50 in experiment [1] (setting [4]) and in experiment [2] (setting [5]) were 12.5 ± 0.5 µM and 13.5 ± 0.5 µM, respectively.
For the compound `O=C1c2ccccc2[C@@]2(c3ccccc3)OC[C@H](Cc3c(Br)n(C(=O)c4ccccc4)c4ccccc34)N12` [Compound 13l, (3S, 9bR)-3-((1-benzoyl-2-bromo-1H-indol-3-yl)methyl)-9b-phenyl-2,3-dihydrooxazolo[2,3-a]isoindol-5(9bH)-one], the GI50 was 23.2 ± 1.15 µM in experiment [1] (setting [4]) and > 50 µM in experiment [2] (setting [5]).

(Values after paper PMC9967700, “Metabolism-Guided Optimization of Tryptophanol-Derived Isoindolinone p53 Activators” (Pharmaceuticals, 2023).)
